# Experimental data taken from US20070128217A1 (priority 2003, published 2007).
# Tests used:
# [1] = test system: antibodies in sera from SARS patients (sera 1a, 1b, 2, 6, 37, 62, London, SARS-yellow, SARS-green); assay type: binding, human; set-up: Binding of serum 6 to linear peptides of protein X1 of SARS-CoV Urbani / Binding of serum 37 to linear peptides of protein X1 of SARS-CoV Urbani / Binding of serum 6 to looped/cyclic peptide (PEPSCAN-ELISA) / Binding of serum 37 to looped/cyclic peptide (PEPSCAN-ELISA) / Binding of serum 37 to looped/cyclic peptides of protein X1 of SARS-CoV Urbani / Binding of serum 6 to linear peptides of protein X2 / Binding of serum 37 to linear peptides of protein X2 / Binding of serum 37 to looped/cyclic peptides of protein X2 of SARS-CoV Urbani / Binding of serum 6 to linear peptides of protein M of SARS-CoV Urbani / Binding of serum 37 to linear peptides of protein M of SARS-CoV Urbani / Binding of serum 6 to looped/cyclic peptides of protein M of SARS-CoV Urbani / Binding of serum 37 to looped/cyclic peptides of protein M of SARS-CoV Urbani / Binding of serum 6 to linear peptides of protein X3 of SARS-CoV Urbani / Binding of serum 37 to linear peptides of protein X3 of SARS-CoV Urbani / Binding of serum 37 to looped/cyclic peptides of protein X3 of SARS-CoV Urbani / Binding of serum 6 to linear peptides of protein X4 of SARS-CoV Urbani / Binding of serum 37 to linear peptides of protein X4 of SARS-CoV Urbani / Binding of serum 37 to looped/cyclic peptides of protein X4 of SARS-CoV Urbani / Binding of serum 6 to linear peptides of protein X5 of SARS-CoV Urbani / Binding of serum 37 to linear peptides of protein X5 of SARS-CoV Urbani / Binding of serum 37 to looped/cyclic peptides of protein X5 of SARS-CoV Urbani / Binding of serum 6 to linear peptides of protein N of SARS-CoV Urbani / Binding of serum 37 to linear peptides of protein N of SARS-CoV Urbani / Binding of serum 6 to linear peptide (PEPSCAN-ELISA) / Binding of serum 1a to looped/cyclic peptides of protein N of SARS-CoV Urbani / Binding of serum 1b to looped/cyclic peptides of protein N of SARS-CoV Urbani / Binding of serum 2 to looped/cyclic peptides of protein N of SARS-CoV Urbani / Binding of serum 6 to looped/cyclic peptides of protein N of SARS-CoV Urbani / Binding of serum 37 to looped/cyclic peptides of protein N of SARS-CoV Urbani / Binding of serum 62 to looped/cyclic peptides of protein N of SARS-CoV Urbani / Binding of serum London to looped/cyclic peptides of protein N of SARS-CoV Urbani / Binding of serum SARS-green to looped/cyclic peptides of protein N of SARS-CoV Urbani: unit not given here
# [2] = test system: rabbit serum obtained by immunizing a rabbit with the SARS-CoV strain Frankfurt 1; assay type: binding; set-up: Binding of a rabbit serum to linear peptides / Binding of a rabbit serum to looped peptides / Rabbit serum linear peptides / Rabbit serum looped peptides / Binding of a rabbit serum to linear peptides of protein N of SARS-CoV Urbani (Rabbit serum linear peptides) / Binding of a rabbit serum to looped/cyclic peptides of protein N of SARS-CoV Urbani (Rabbit serum looped peptides): unit not given here
# [3] = test system: control sera (pooled serum of ten healthy LUMC hospital workers; commercial negative donor pooled serum from the Dutch bloodbank); assay type: binding, human; set-up: Binding of Control serum LUMC to linear peptides / Binding of Control serum Blood-bank to linear peptides / Binding of Control serum LUMC to looped peptides / Binding of Control Serum Blood-Bank to Looped peptides / Binding of Control serum LUMC to linear peptides of the protein M of SARS-CoV Urbani / Binding of Control serum Blood-bank to linear peptides of the protein M of SARS-CoV Urbani / Binding of Control serum LUMC to looped peptides of the protein M of SARS-CoV Urbani / Binding of Control Serum Blood-Bank to Looped peptides of the protein M of SARS-CoV Urbani: unit not given here
sequence,measurement,setting,value
VAFLAVFQSATKIIA,Binding of serum 1a to linear peptides of protein X1 of SARS-CoV Urbani,[1],0.6
same,Binding of serum 1a to looped/cyclic peptide (PEPSCAN-ELISA),[1],0.6
same,Binding of serum 1b to linear peptides of protein X1 of SARS-CoV Urbani,[1],0.5
same,Binding of serum 1b to looped/cyclic peptide (PEPSCAN-ELISA),[1],0.4
same,Binding of serum 2 to linear peptides of protein X1 of SARS-CoV Urbani,[1],0.5
same,Binding of serum 2 to looped/cyclic peptide (PEPSCAN-ELISA),[1],0.6
same,Binding of serum 6 to linear peptides of protein X1 of SARS-CoV Urbani,[1],0.7
same,Binding of serum 6 to looped/cyclic peptide (PEPSCAN-ELISA),[1],0.7
same,Binding of serum 37 to linear peptides of protein X1 of SARS-CoV Urbani,[1],0.6
same,Binding of serum 37 to looped/cyclic peptide (PEPSCAN-ELISA),[1],0.6
same,Binding of serum 62 to linear peptides of protein X1 of SARS-CoV Urbani,[1],0.6
same,Binding of serum 62 to looped/cyclic peptide (PEPSCAN-ELISA),[1],0.6
same,Binding of serum London to linear peptides of protein X1 of SARS-CoV Urbani,[1],0.2
same,Binding of serum London to looped/cyclic peptide (PEPSCAN-ELISA),[1],0.7
same,Binding of serum SARS-green to linear peptides of protein X1 of SARS-CoV Urbani,[1],0.2
same,Binding of serum SARS-green to looped/cyclic peptide (PEPSCAN-ELISA),[1],0.4
same,Binding of serum SARS-yellow to linear peptides of protein X1 of SARS-CoV Urbani,[1],0.4
same,Binding of serum SARS-yellow to looped/cyclic peptide (PEPSCAN-ELISA),[1],0.5
same,Binding of a rabbit serum to linear peptides,[2],0.2
same,Binding of a rabbit serum to looped peptides,[2],0.6
same,Binding of Control Serum Blood-Bank to Looped peptides,[3],0.7
same,Binding of Control serum Blood-bank to linear peptides,[3],0.6
same,Binding of Control serum LUMC to linear peptides,[3],0.5
same,Binding of Control serum LUMC to looped peptides,[3],0.7
SQIQLSLLKVTAFQH,Binding of serum 1a to linear peptides of protein X2,[1],0.6
same,Binding of serum 1a to looped/cyclic peptides of protein X2 of SARS-CoV Urbani,[1],0.5
same,Binding of serum 1b to linear peptides of protein X2,[1],0.5
same,Binding of serum 1b to looped/cyclic peptides of protein X2 of SARS-CoV Urbani,[1],0.5
same,Binding of serum 2 to linear peptides of protein X2,[1],0.4
same,Binding of serum 2 to looped/cyclic peptides of protein X2 of SARS-CoV Urbani,[1],0.4
same,Binding of serum 6 to linear peptides of protein X2,[1],0.5
same,Binding of serum 6 to looped/cyclic peptides of protein X2 of SARS-CoV Urbani,[1],0.6
same,Binding of serum 37 to linear peptides of protein X2,[1],0.5
same,Binding of serum 37 to looped/cyclic peptides of protein X2 of SARS-CoV Urbani,[1],0.4
same,Binding of serum 62 to linear peptides of protein X2,[1],0.4
same,Binding of serum 62 to looped/cyclic peptides of protein X2 of SARS-CoV Urbani,[1],0.6
same,Binding of serum London to linear peptides of protein X2,[1],0.3
same,Binding of serum London to looped/cyclic peptides of protein X2 of SARS-CoV Urbani,[1],1.0
same,Binding of serum SARS-green to linear peptides of protein X2,[1],0.2
same,Binding of serum SARS-green to looped/cyclic peptides of protein X2 of SARS-CoV Urbani,[1],0.2
same,Binding of serum SARS-yellow to linear peptides of protein X2,[1],0.3
same,Binding of serum SARS-yellow to looped/cyclic peptides of protein X2 of SARS-CoV Urbani,[1],0.7
same,Binding of a rabbit serum to linear peptides,[2],0.7
same,Binding of a rabbit serum to looped peptides,[2],0.5
same,Binding of Control Serum Blood-Bank to Looped peptides,[3],0.6
same,Binding of Control serum Blood-bank to linear peptides,[3],0.5
same,Binding of Control serum LUMC to linear peptides,[3],0.7
same,Binding of Control serum LUMC to looped peptides,[3],0.6
